The experiment addresses T1, recombinant human NPY 5 receptors (Homo sapiens, UniProt Q15761).
T1 construct: made in house; host or cells: Sf9 insect cells, baculovirus-infected (membranes)
T1 sequence (Q15761 1-445): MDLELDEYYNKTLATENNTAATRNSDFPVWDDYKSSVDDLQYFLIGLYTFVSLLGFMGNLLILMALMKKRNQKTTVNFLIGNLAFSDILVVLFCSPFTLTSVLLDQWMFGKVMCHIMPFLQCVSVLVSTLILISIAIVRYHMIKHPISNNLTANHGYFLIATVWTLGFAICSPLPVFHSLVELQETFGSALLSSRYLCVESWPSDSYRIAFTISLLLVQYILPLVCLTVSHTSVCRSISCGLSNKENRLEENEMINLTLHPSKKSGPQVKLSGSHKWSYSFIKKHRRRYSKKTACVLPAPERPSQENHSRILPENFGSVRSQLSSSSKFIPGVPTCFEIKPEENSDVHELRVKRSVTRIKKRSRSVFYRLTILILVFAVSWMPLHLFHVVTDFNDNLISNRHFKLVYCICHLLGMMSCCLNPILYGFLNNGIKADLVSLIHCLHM
Briefly: [125I]PYY binding at human NPY5 receptors expressed in Sf9 cells. Conditions: [125I]PYY(porcine) displacement, membranes of baculovirus-infected Sf9 cells; read-out: Ki (binding constants in the NPY5). How it is done:
[^125 I]PYY Binding at Human NPY Receptors Expressed in Sf9 Cells
Baculovirus-infected Sf9 cells expressing recombinant human NPY 5 receptors are harvested at 48 hours. At the time of harvest, cell pellets are resuspended in lysis buffer (20 mM Tris-HCl, pH 7.4, 5 mM EDTA, 0.5 μg/ml leupeptin, 2 μg/ml Aprotonin and […]) and homogenized using a Polytron (setting 3, 25-30 seconds). Homogenates are centrifuged at 4° C. for 5 minutes at 200 x g ([…]) to pellet the nuclei. The supernatant is collected into a fresh tube and centrifuged at 48,000 x g for 10 minutes. Pellets are washed once in lysis buffer and centrifuged. The final pellet is resuspended in PBS and stored in aliquots at -80° C. Purified membranes are washed using PBS and resuspended in binding buffer (50 mM Tris(HCl), pH 7.4, 5 mM KCl, 120 mM NaCl, 2 mM CaCl2, 1 mM MgCl2, 0.1% bovine serum albumin (BSA)). Membranes (20 μg/reaction tube) are added to polypropylene tubes containing 0.035 nM [^125 I]PYY(porcine), displacers ranging from 10^-12 M to 10^-5 M, and buffer to yield a final volume of 0.5 mL. Nonspecific binding is determined in the presence of 1 μM NPY(human) and accounts for 10% of total binding. Following a 2 hour incubation at room temperature, the reaction is terminated by rapid vacuum filtration. […] IC50 values were calculated with the non-linear curve fitting program RS/1 (SigmaPlot, Jandel).

This passage reports Ki results from patent US6197822A, “Neuropeptide antagonists” (Pfizer Inc., priority 2000, dated 2001).

By Ki is commonly meant the equilibrium dissociation constant of an inhibitor or competing ligand from its target. Regarding `Cc1ccc(NC(=O)C(c2ccccc2)c2ccccc2)cc1` [--CH3], the Ki was determined as 800 nM.

For `CCN(CC)c1ccc(NC(=O)C(c2ccccc2)c2ccccc2)cc1` [--N(C2 H5)2], the Ki is 8 nM.
